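Assay format: 96-well plates, 48-hour exposure. At the GI50, growth is halved.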 The source made the active and inactive calls. Cut-off read from the data, not from the text of the source: active = GI50 up to about 1.1 µM and inactive = higher.
Key:
Assay in all cases: NCI anticancer screen, dose series, 48 h
[1] = tested on: RPMI-8226
[2] = tested on: A549
[3] = tested on: MCF7
[4] = tested on: HCC 2998
[5] = tested on: Malme-3M
[6] = tested on: OVCAR-3
[7] = tested on: BT-549
[8] = tested on: MDA-MB-435
[9] = tested on: SK-MEL-2
[10] = tested on: HOP-62
[11] = tested on: SK-MEL-28
[12] = tested on: M14
[13] = tested on: IGROV-1
[14] = tested on: CCRF-CEM
[15] = tested on: SW-620
[16] = tested on: A498
[17] = tested on: MDA-N
[18] = tested on: RXF 393
[19] = tested on: MDA-MB-231
[20] = tested on: SK-OV-3

Structure (SMILES) | GI50 [1] | GI50 [2] | GI50 [3] | GI50 [4] | GI50 [5] | GI50 [6] | GI50 [7] | GI50 [8] | GI50 [9] | GI50 [10] | GI50 [11] | GI50 [12] | GI50 [13] | GI50 [14] | GI50 [15] | GI50 [16] | GI50 [17] | GI50 [18] | GI50 [19] | GI50 [20]
CN(C)CCNC(=O)c1cccc2c1Oc1c(cccc1[N+](=O)[O-])O2 | 0.583 µM (active) | 0.458 µM (active) | 0.957 µM (active) | 1.04 µM (active) | 1.33 µM (inactive) | 2.69 µM (inactive) | 1.9 µM (inactive) | 3.44 µM (inactive) | 0.29 µM (active) | 0.472 µM (active) | 2.02 µM (inactive) | 2.64 µM (inactive) | 1.56 µM (inactive) | 0.371 µM (active) | 1.06 µM (active) | 1.37 µM (inactive) | 2.78 µM (inactive) | 2.08 µM (inactive) |  | 
C=C1C(O)C23CCC4C(C(=O)O)(C(=O)O)CC(OC5OC(CO)C(O)C(OC(=O)CCc6ccccc6)C5NC(=O)CC(C)C)CC4(C)C2CCC1(O)C3 (configuration not stated) | > 100 µM (inactive) | > 100 µM (inactive) |  | > 100 µM (inactive) | > 100 µM (inactive) | > 100 µM (inactive) | > 100 µM (inactive) | > 100 µM (inactive) | > 100 µM (inactive) | > 100 µM (inactive) | > 100 µM (inactive) | > 100 µM (inactive) | > 100 µM (inactive) | > 100 µM (inactive) | > 100 µM (inactive) | > 100 µM (inactive) | > 100 µM (inactive) | > 100 µM (inactive) | > 100 µM (inactive) | > 100 µM (inactive)
CN1C2CCC1CC(=CCOC(c1ccc(F)cc1)c1ccc(F)cc1)C2 | 15.3 µM (inactive) | 17.1 µM (inactive) | 16.6 µM (inactive) | 4 µM (inactive) | 13.2 µM (inactive) | 17 µM (inactive) | 16.3 µM (inactive) | 12.8 µM (inactive) | 19.1 µM (inactive) | 17.7 µM (inactive) | 18.9 µM (inactive) | 16.4 µM (inactive) | 15.7 µM (inactive) | 37 µM (inactive) | 30.8 µM (inactive) | 14.7 µM (inactive) |  | 14.5 µM (inactive) | 17.9 µM (inactive) | 17 µM (inactive)
Cc1cc2c(cc1Cl)SC(NNCCO)=NS2(=O)=O | > 100 µM (inactive) |  | > 100 µM (inactive) | > 100 µM (inactive) |  |  | > 100 µM (inactive) | > 100 µM (inactive) | > 100 µM (inactive) | > 100 µM (inactive) | > 100 µM (inactive) | > 100 µM (inactive) | > 100 µM (inactive) | > 100 µM (inactive) | > 100 µM (inactive) |  |  | > 100 µM (inactive) | > 100 µM (inactive) | > 100 µM (inactive)
O=C1C=Cc2c1csc2Br |  | 41.5 µM (inactive) | 24.9 µM (inactive) |  | 38.1 µM (inactive) | 71 µM (inactive) | 27.4 µM (inactive) | 32.1 µM (inactive) | > 100 µM (inactive) | > 100 µM (inactive) | 63.1 µM (inactive) | 19.1 µM (inactive) | 38.3 µM (inactive) | 16.9 µM (inactive) | 22.3 µM (inactive) |  | 50 µM (inactive) | 71.4 µM (inactive) | 91.8 µM (inactive) | > 100 µM (inactive)
CC1(C)O[C@@H]([C@@H](O)[C@H](O)C2SCCCS2)[C@@H](CO)O1 | > 100 µM (inactive) | > 100 µM (inactive) |  |  | > 100 µM (inactive) | > 100 µM (inactive) | > 100 µM (inactive) | > 100 µM (inactive) | > 100 µM (inactive) | > 100 µM (inactive) | > 100 µM (inactive) | > 100 µM (inactive) | > 100 µM (inactive) | > 100 µM (inactive) | > 100 µM (inactive) | > 100 µM (inactive) | > 100 µM (inactive) | > 100 µM (inactive) | > 100 µM (inactive) | > 100 µM (inactive)
CCc1ccccc1NC(=O)C(=O)CC(=O)c1sc(Nc2ccccc2Cl)nc1C | 19.2 µM (inactive) | 24 µM (inactive) | 18.2 µM (inactive) | 30.1 µM (inactive) |  | 19.5 µM (inactive) | 34.8 µM (inactive) | 25.6 µM (inactive) | 24.4 µM (inactive) | 31.6 µM (inactive) | 36 µM (inactive) | 27.7 µM (inactive) | 40 µM (inactive) | 18 µM (inactive) | 25.6 µM (inactive) |  | 28.8 µM (inactive) | 24.9 µM (inactive) | 27 µM (inactive) | 24.2 µM (inactive)
OC(Cc1cccc2ccccc12)CN1CCC(c2ccccc2)CC1 (configuration not stated) | 8.13 µM (inactive) | 15.9 µM (inactive) | 17.3 µM (inactive) | 2.56 µM (inactive) |  | 15.1 µM (inactive) | 16.8 µM (inactive) | 15.1 µM (inactive) |  | 15.8 µM (inactive) | 13.4 µM (inactive) | 13.8 µM (inactive) |  | 18.5 µM (inactive) | 15 µM (inactive) |  | 14.3 µM (inactive) | 10.2 µM (inactive) | 14.2 µM (inactive) | 17.5 µM (inactive)
C[C@@H]1CC[C@@H](C)[C@](C)(CCc2ccoc2)C/C=C\C=C/1C(=O)O |  | > 50 µM (inactive) | > 50 µM (inactive) | > 50 µM (inactive) | > 50 µM (inactive) | > 50 µM (inactive) | > 50 µM (inactive) |  | > 50 µM (inactive) | > 50 µM (inactive) | > 50 µM (inactive) | > 50 µM (inactive) | > 50 µM (inactive) | > 50 µM (inactive) | > 50 µM (inactive) | > 50 µM (inactive) | > 50 µM (inactive) | > 50 µM (inactive) | > 50 µM (inactive) | > 50 µM (inactive)
COc1cccc(Nc2nc(-c3cccs3)nc3cc(OC)c(OC)cc23)c1 | 13.2 µM (inactive) | 29 µM (inactive) | 24.5 µM (inactive) |  | 68.9 µM (inactive) | 24.3 µM (inactive) | 25.9 µM (inactive) | 31.3 µM (inactive) | 35.8 µM (inactive) | 27.8 µM (inactive) | 31.5 µM (inactive) | 35.2 µM (inactive) | 21.6 µM (inactive) |  | 29 µM (inactive) | 18.9 µM (inactive) |  |  | 23 µM (inactive) | 53 µM (inactive)
Nc1ccc2nc(-c3cccc(C(F)(F)F)c3)cc(O)c2c1 | 38.5 µM (inactive) | 71.4 µM (inactive) | 28.2 µM (inactive) | 60.1 µM (inactive) | 40.6 µM (inactive) |  | 23.6 µM (inactive) | 20.3 µM (inactive) |  | 47.2 µM (inactive) | 53.5 µM (inactive) | 59.6 µM (inactive) | 33.5 µM (inactive) | 28.8 µM (inactive) | 62.1 µM (inactive) | 29.1 µM (inactive) |  |  | 50.7 µM (inactive) | 44.8 µM (inactive)
CCOC(=O)c1cc(I)c(-c2cc(C)no2)n1C | 19.3 µM (inactive) | 61.7 µM (inactive) |  |  | 28.1 µM (inactive) | 38.4 µM (inactive) | 64.7 µM (inactive) | 34.8 µM (inactive) | > 100 µM (inactive) |  | > 100 µM (inactive) | 94 µM (inactive) |  | 27.9 µM (inactive) | 60.7 µM (inactive) | 23.7 µM (inactive) | 43.9 µM (inactive) | 15.4 µM (inactive) | 36 µM (inactive) | > 100 µM (inactive)
C[N+](C)=C/C=C(\Cl)c1ccc2ccccc2c1 | 2.89 µM (inactive) | > 75.7 µM (inactive) | 19 µM (inactive) | 6.37 µM (inactive) | 11.8 µM (inactive) | 6.24 µM (inactive) | 17.7 µM (inactive) | 16.7 µM (inactive) | 25.2 µM (inactive) | 17.8 µM (inactive) | 3.61 µM (inactive) | 6.62 µM (inactive) | 16.5 µM (inactive) | 1.66 µM (inactive) | 4.29 µM (inactive) | > 63 µM (inactive) |  | 16.5 µM (inactive) | 14.6 µM (inactive) | 18 µM (inactive)
C/C(=C\COP(=O)(O)OP(=O)(O)O)CCCCCCOCc1ccccc1 | > 100 µM (inactive) | > 100 µM (inactive) | > 100 µM (inactive) | > 100 µM (inactive) | > 100 µM (inactive) | > 100 µM (inactive) | > 100 µM (inactive) | > 100 µM (inactive) |  | > 100 µM (inactive) | > 100 µM (inactive) | > 100 µM (inactive) | > 100 µM (inactive) | > 100 µM (inactive) | > 100 µM (inactive) | > 100 µM (inactive) |  | > 100 µM (inactive) | > 100 µM (inactive) | > 100 µM (inactive)
COc1ccc(C[C@@H](C(=O)O[C@H](C)[C@H](NC(=O)[C@@H](CC(C)C)N(C)C(=O)C2CCCN2C(=O)[C@H](C)O)C(=O)N2CCCCNC(=O)[C@@H](C)C(=O)[C@H](C(C)C)OC(=O)C[C@H](O)[C@H]2CC(C)C)N(C)C(C)=O)cc1 (some centres not stated) | 9.08 µM (inactive) | 13.2 µM (inactive) | 2.78 µM (inactive) | 9.33 µM (inactive) | 10.2 µM (inactive) | 14 µM (inactive) | 17.5 µM (inactive) | 16.7 µM (inactive) | 17.7 µM (inactive) | 13.4 µM (inactive) | 4.13 µM (inactive) | 9.08 µM (inactive) | 9.2 µM (inactive) | 8.61 µM (inactive) | 5.85 µM (inactive) | 14.3 µM (inactive) |  | 5.2 µM (inactive) | 9.35 µM (inactive) | 16.1 µM (inactive)

From ChEMBL document CHEMBL1201862, “PubChem BioAssay data set” (2004)
